Experimental data from the NIST ThermoML archive (doi:10.1016/j.jct.2017.03.026).
Values joined by “and” are separate entries in the source; they are usually repeats but may differ in a detail not shown here. Equal entries are not always repeated.

Assay: molar heat capacity at constant pressure
Conditions: 101.33 kPa, Crystal, Small (less than 1 g) adiabatic calorimetry

O.O.O.O.O.O=S(=O)([O-])[O-].[Cu+2] [copper(II) sulfate pentahydrate]
Conditions	molar heat capacity at constant pressure
263.9 K	273.18 J/K/mol
263.97 K	273.31 J/K/mol
264.29 K	274.33 J/K/mol
264.46 K	276.88 J/K/mol
264.57 K	275.1 J/K/mol
264.65 K	275.18 J/K/mol
264.69 K	262.84 J/K/mol
264.78 K	276.45 J/K/mol
264.88 K	264.12 J/K/mol
264.96 K	275.1 J/K/mol
265.24 K	276.28 J/K/mol
265.28 K	276.6 J/K/mol
265.59 K	277.08 J/K/mol
265.9 K	279.45 J/K/mol
265.91 K	277.83 J/K/mol and 277.48 J/K/mol
266.22 K	277.65 J/K/mol
266.54 K	279.67 J/K/mol
266.57 K	280.8 J/K/mol
266.85 K	280.57 J/K/mol
267.02 K	283.47 J/K/mol
267.12 K	265.84 J/K/mol
267.16 K	281.25 J/K/mol
267.24 K	282.99 J/K/mol
267.47 K	265.72 J/K/mol
267.48 K	282.69 J/K/mol
267.49 K	288.14 J/K/mol
267.79 K	284.49 J/K/mol
267.89 K	286.74 J/K/mol
268.1 K	286.29 J/K/mol
268.14 K	289.09 J/K/mol
268.41 K	287.96 J/K/mol
268.56 K	290.56 J/K/mol
268.72 K	290.51 J/K/mol
269.03 K	293.88 J/K/mol
269.21 K	298.25 J/K/mol
269.26 K	299.3 J/K/mol
269.34 K	297.25 J/K/mol
269.69 K	302.97 J/K/mol
269.86 K	308.74 J/K/mol
270 K	267.7 J/K/mol and 309.44 J/K/mol
270.26 K	267.96 J/K/mol
270.3 K	319.67 J/K/mol
270.38 K	339.72 J/K/mol and 332.91 J/K/mol
270.48 K	333.13 J/K/mol
270.59 K	334.95 J/K/mol
270.88 K	351.88 J/K/mol
271.09 K	383.64 J/K/mol
271.16 K	376.43 J/K/mol
271.44 K	383.42 J/K/mol
271.46 K	344.42 J/K/mol
271.62 K	269.24 J/K/mol
271.71 K	298.82 J/K/mol
271.74 K	277.83 J/K/mol
272.06 K	278.7 J/K/mol
272.36 K	280.4 J/K/mol
272.37 K	278.52 J/K/mol
272.63 K	281.05 J/K/mol
272.69 K	278.7 J/K/mol
273.01 K	279.65 J/K/mol
273.04 K	280.4 J/K/mol
273.15 K	269.83 J/K/mol and 270.1 J/K/mol
273.27 K	284.34 J/K/mol
273.33 K	280.47 J/K/mol
273.64 K	279.37 J/K/mol
273.74 K	281.2 J/K/mol
273.8 K	282.84 J/K/mol
273.88 K	270.91 J/K/mol
273.96 K	280.1 J/K/mol
274.28 K	278.85 J/K/mol
274.4 K	281.05 J/K/mol
274.64 K	282.74 J/K/mol
274.93 K	283.52 J/K/mol
274.96 K	280.85 J/K/mol
275.07 K	282.49 J/K/mol
275.27 K	285.02 J/K/mol
275.6 K	285.39 J/K/mol
275.73 K	282.32 J/K/mol
275.91 K	281.82 J/K/mol
275.93 K	272.18 J/K/mol
276.06 K	284.92 J/K/mol
276.14 K	271.78 J/K/mol
276.23 K	282.52 J/K/mol
276.26 K	287.86 J/K/mol
276.39 K	283.24 J/K/mol
276.54 K	281.92 J/K/mol
276.86 K	283.12 J/K/mol
277.05 K	284.94 J/K/mol
277.17 K	283.69 J/K/mol
277.18 K	287.21 J/K/mol
277.48 K	283.57 J/K/mol
277.71 K	285.67 J/K/mol
277.8 K	284.34 J/K/mol
278.11 K	284.89 J/K/mol
278.31 K	288.04 J/K/mol
278.37 K	287.66 J/K/mol
278.38 K	274.55 J/K/mol
278.43 K	285.39 J/K/mol
278.71 K	274.33 J/K/mol
278.74 K	285.79 J/K/mol
279.05 K	283.84 J/K/mol
279.06 K	284.24 J/K/mol
279.23 K	285.22 J/K/mol
279.37 K	283.12 J/K/mol
279.45 K	283.07 J/K/mol
279.71 K	282.87 J/K/mol
279.74 K	283.84 J/K/mol
280 K	275.2 J/K/mol
280.05 K	283.69 J/K/mol
280.37 K	283.64 J/K/mol
280.38 K	282.97 J/K/mol
280.57 K	284.27 J/K/mol
280.66 K	275.03 J/K/mol
280.69 K	284.49 J/K/mol
281.02 K	283.67 J/K/mol
281.05 K	283.87 J/K/mol
281.33 K	283.77 J/K/mol
281.48 K	276.46 J/K/mol
281.65 K	284.82 J/K/mol
281.7 K	285.57 J/K/mol
281.71 K	285.19 J/K/mol
281.97 K	283.94 J/K/mol
282.27 K	286.17 J/K/mol
282.29 K	285.04 J/K/mol
282.39 K	285.19 J/K/mol
282.6 K	284.74 J/K/mol
282.84 K	286.54 J/K/mol
282.91 K	276.63 J/K/mol
282.92 K	285.39 J/K/mol
283.05 K	284.89 J/K/mol
283.24 K	285.54 J/K/mol
283.56 K	286.89 J/K/mol
283.72 K	285.69 J/K/mol
283.88 K	287.24 J/K/mol
283.97 K	287.54 J/K/mol
284.2 K	286.71 J/K/mol
284.24 K	278.43 J/K/mol
284.43 K	286.89 J/K/mol
284.52 K	286.41 J/K/mol
284.89 K	287.61 J/K/mol
285.09 K	286.69 J/K/mol
285.11 K	288.04 J/K/mol
285.16 K	279.3 J/K/mol
285.21 K	287.79 J/K/mol
285.23 K	288.34 J/K/mol
285.54 K	287.61 J/K/mol
285.76 K	287.46 J/K/mol
285.86 K	289.01 J/K/mol
286.18 K	287.86 J/K/mol
286.25 K	289.39 J/K/mol
286.42 K	287.76 J/K/mol
286.51 K	286.29 J/K/mol
286.83 K	288.26 J/K/mol
287 K	280.48 J/K/mol
287.09 K	288.31 J/K/mol
287.16 K	288.41 J/K/mol
287.4 K	289.81 J/K/mol
287.46 K	280.82 J/K/mol
287.49 K	289.64 J/K/mol
